Measured values taken from patent US6747060B2, “Non-natural galanin receptor ligands” (Kemia, Inc., priority 2002, dated 2004).
Entries after “also recorded” stand apart in the source; their conditions may differ. Like-named read-outs stand apart in the source and are kept apart here. Non-standard residues stand in square brackets, D forms with d. Residues, ends and D or L forms follow the SMILES beside them. *: point of attachment. Fmoc = O=C(OCC1c2ccccc2-c2ccccc21)*; AMC = Cc1cc(=O)oc2cc(N*)ccc12; Cha = N[CH](CC1CCCCC1)C(=O)O

Columns and labels:
human GalR1 = target: T1, human GalR1 (Homo sapiens, UniProt P47211); conditions: antagonists, literature reports; cited from earlier work
T1 sequence (P47211 1-349): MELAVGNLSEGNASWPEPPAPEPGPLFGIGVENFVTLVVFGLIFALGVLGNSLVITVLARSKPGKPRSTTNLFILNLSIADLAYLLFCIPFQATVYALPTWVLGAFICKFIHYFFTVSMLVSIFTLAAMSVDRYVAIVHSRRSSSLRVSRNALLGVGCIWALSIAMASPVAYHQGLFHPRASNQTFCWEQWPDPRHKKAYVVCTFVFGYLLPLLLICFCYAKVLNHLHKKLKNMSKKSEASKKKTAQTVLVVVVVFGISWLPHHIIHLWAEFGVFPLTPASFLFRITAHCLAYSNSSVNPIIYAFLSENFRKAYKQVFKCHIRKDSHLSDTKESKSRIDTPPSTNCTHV

[1] = test system: self sustaining status epilepticus; test: self sustaining status epilepticus (SSSE) induced by PPS in rats; format: in vivo
Description: The effects of intrahippocampal galnon administration was evaluated in rats. SSSE consisted of recurrent limbic seizures of varying intensity (stages 1-5), which lasted for 12-18 h after PPS was discontinued. Behavioral seizures were accompanied by high-frequency (13+Hz) and amplitude (1+mV) discharges with the duration of individual events between 30 s and 3 min. Between the seizures, ictal spikes with the amplitude of 0.8 mV and more and frequency of 3 Hz and less were continuously generated (spike frequency of 3 Hz and more was recognized as a seizure)^5.

galanin binding sites = test: autoradiographic [125I]-galanin binding assay on rat spinal cord sections; conditions: rat spinal cord sections L4, L5; galnon at 1, 3 and 5 μM
Description: Rats were decapitated, the spinal cord lumbar segments L4 and L5 were dissected out, rapidly frozen, cut in a cryostat and processed for the autoradiographic ligand binding assay of Young and Kuhar^13, as described previously^14. Galnon was added at 1, 3 and 5 μM concentration. The sections were processed in a BAS3000 Bio-Imagine Analyzer (Fuji) and quantified and then exposed to Hyperfilm-Max X-ray film (Arnersham Pharmacia Biotech).

adenylate cyclase = adenylate cyclase assay (basal and forskolin-stimulated cAMP production) in membranes from rat ventral hippocampi; format: biochemical
Description: (§1) The mixtures of ligands and individual compounds were screened to displace [^125I]-galanin in equilibrium binding assay using membrane preparations from rat hippocampi, rich in galanin binding sites as described in detail previously^11. Effect of galnon on basal and forskolin-stimulated cAMP production were performed essentially as described by Valkna et al.^12 in membranes from rat ventral hippocampi.

galanin receptors = test: [125I]-galanin displacement, equilibrium binding in rat ventral hippocampal membranes; conditions: membranes from rat ventral hippocampus
Description: as §1

PTZ-induced seizures = PTZ-induced seizures in mice
Description: The experiments were performed on C57B1 male mice (weight 20-30 g). Animals to be treated with galanin, or M35 were anaesthetized with ketamine (100 mg/kg i.p.) and xylazine (15 mg/kg i.p.) and stereotaxically implanted i.c.v. with guide cannulae (0.6 mm internal diameter). Postoperative recovery was 3-5 days. Galanin, or M35 were injected into the lateral brain ventricle of freely moving mice by means of Hamilton microsyringe in the amount 0.5 nmol, in 0.5 μl, at a rate […]. Control animals were treated with saline.
Galnon was dissolved in the 50% DMSO in saline and administered i.p. in a dose of 2 mg/kg […] prior to PTZ injection (when the effect of galnon alone was studied) or […] after M35 injection (in co-administration studies). Control animals were treated with 50% DM50 in saline.
Seizures were induced by i.p. injection of PTZ (Research Biochemicals, Natick, Massachusetts) in a dose of 40 mg/kg (when studying the effects of galanin only, or galnon only) or 30 mg/kg (when studying the effect of M35 and galnon+M35). The animals were placed in individual Plexiglas cages and videotaped for 15 min after PTZ administration. Seizures were analyzed off-line by a unbiased investigator and quantified using the following scale: 0: no motor seizures; 1: staring, mouth, or facial movements; 2: head nodding or isolated twitches; 3: unilateral bilateral forelimb clonus; 4: rearing; 5: rearing and falling; 6: tonic extension of hind limbs or death. The latency of each behavioral seizure type and the highest seizure score were recorded. […] Statistical methods used: t-test (latency) and Mann-Whitney (seizure score).

[2] = equimolar galnon into hippocampus before M35 5 nmol, 7 min PPS
[3] = galnon 1 nmol, control rats injected with scrambled PNA

| Compound | IC50 (human GalR1) [µM] | anticonvulsant effect in the presence of GalR antagonist M35 ([1]; M35 0.5 nmol pretreatment) | duration of SSSE [1, 2] [min] | total seizure time [1, 2] [min] | effect on self-sustaining seizures ([1]; galnon 1 nmol, PNA1-pretreated animals (GalR1 down-regulated)) | reduction of duration of SSSE [1, 3] [fold] | reduction of total seizure time [1, 3] [fold] | effect on SSSE ([1]; intrahippocampal injection 10 min after the end of PPS) | SSSE duration ([1]; intrahippocampal, maximal dose 5 nmol, 30 min PPS) [min] | displacement of [125I]-galanin, autoradiographic signal (galanin binding sites) | EC50 (adenylate cyclase; basal, read-out: EC50, M of inhibition of adenylate cyclase activity (basal)) [µM] | EC50 (adenylate cyclase; forskolin stimulated, read-out: EC50, M of inhibition of adenylate cyclase activity (forskolin stimulated)) [µM] | Ki (galanin receptors) [µM] | effect on seizure-facilitating effect of M35 (PTZ-induced seizures; M35 i.c.v. co-administered with galnon i.p., PTZ 30 mg/kg) | maximal seizure score (PTZ-induced seizures; PTZ 40 mg/kg i.p., 2 mg/kg i.p. 15 min prior to PTZ, scale 0-6) | anticonvulsant effect compared with galanin i.c.v. 0.5 nmol (PTZ-induced seizures; PTZ 40 mg/kg, galnon 2 mg/kg i.p.) | behavioral side effects (PTZ-induced seizures; mice, galnon 2 mg/kg i.p.) |
| --- | --- | --- | --- | --- | --- | --- | --- | --- | --- | --- | --- | --- | --- | --- | --- | --- | --- |
| COC(=O)C1=C[C@@H](O)[C@@H](O)[C@H](O)[C@@H]1Oc1c(Cl)c(C)c(Cl)c2c1C(=O)[C@@]1(O2)C(OC)=CC(=O)C=C1C(=O)OC [Sch 202596] | 1.4 | – | – | – | – | – | – | – | – | – | – | – | – | – | – | – | – |
| Cc1cc(=O)oc2cc(NC(=O)C(CCCCN)NC(=O)C(CC3CCCCC3)NC(=O)OCC3c4ccccc4-c4ccccc43)ccc12 (stereo not drawn) [galnon, 1-[5-amino-1-(4-methyl-2-oxo-2H-chromen-7-ylcarbamoyl)-pentylcarbamoyl]-2-cyclohexyl-ethyl-carbamic acid 9H-fluoren-9-ylmethyl ester] (Fmoc-[Cha]-Lys-{AMC}; configuration not given here) | – | attenuated; also recorded: abolished | 37 ± 8 | 13 ± 4 | no effect | 7 | 9 | attenuated SSSE in a dose dependent manner | 28 ± 8 | significant increase in binding as compared to controls was only seen at the concentration of 5 μM | 8 | 10 | 4.8 | completely abolished | 1.45 | comparable to that of galanin | No obvious behavioral side effects |
| dithiipin-1,1,4,4-tetroxide | 0.17 | – | – | – | – | – | – | – | – | – | – | – | – | – | – | – | – |
